For orientation: Ki means the equilibrium dissociation constant of an inhibitor or competing ligand from its target. High values mean lower affinity, low ones higher affinity.

Assay [1] has as its target Muscarinic acetylcholine receptors; M1 & M2 (Homo sapiens) (UniProt P11229+P08172). As to the kind of experiment: Selectivity for muscarinic M1 receptor over muscarinic M2 receptor. In kind it is protein assay.
In assay [2] the target is T1, Muscarinic acetylcholine receptor M1 (Homo sapiens, UniProt P11229).
T1 sequence (P11229 whole entry): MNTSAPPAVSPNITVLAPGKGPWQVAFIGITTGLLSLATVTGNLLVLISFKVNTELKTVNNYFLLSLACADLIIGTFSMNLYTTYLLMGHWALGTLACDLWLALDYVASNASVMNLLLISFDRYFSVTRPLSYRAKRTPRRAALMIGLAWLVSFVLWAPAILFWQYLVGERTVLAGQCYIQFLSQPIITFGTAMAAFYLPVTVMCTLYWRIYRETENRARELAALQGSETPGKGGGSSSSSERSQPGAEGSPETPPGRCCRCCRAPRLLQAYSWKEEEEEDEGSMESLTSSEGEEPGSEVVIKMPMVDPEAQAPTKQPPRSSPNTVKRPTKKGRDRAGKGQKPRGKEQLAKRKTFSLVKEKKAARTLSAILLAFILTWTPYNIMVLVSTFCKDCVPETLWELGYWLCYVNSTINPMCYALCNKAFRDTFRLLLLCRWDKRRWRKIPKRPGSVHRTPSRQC
Kind of assay: Binding affinity to muscarinic M1 receptor.

Take `C=C(c1ccc(S(=O)(=O)c2ccc(OC)cc2)cc1)C1CCN(C2CCN(C(=O)OCC)CC2)CC1`: in assay [1], the Ratio pKi is 1.77.
Regarding `C=C(c1ccc(S(=O)(=O)c2ccc(OC)cc2)cc1)C1CCN(C2CCN(S(=O)(=O)CCC)CC2)CC1`, the Ratio pKi in assay [1] came to 1.95.
With `C=C(c1ccc(S(=O)(=O)c2ccc(OC)cc2)cc1)C1CCN(C2CCN(C(=O)OCc3ccccc3)CC2)CC1`, the Ki in assay [2] was 10.8 nM. In assay [1], the Ratio pKi turned out to be 1.38.
In turn, `C=C(c1ccc(S(=O)(=O)c2ccc(OC)cc2)cc1)C1CCN(C2CCN(S(=O)(=O)CCCC)CC2)CC1` showed a Ki in assay [2] of 57 nM. Also, the Ratio pKi in assay [1] is 2.18.
Turning to `C=C(c1ccc(S(=O)(=O)c2ccc(OC)cc2)cc1)C1CCN(C2CCN(C(=O)OC(C)C)CC2)CC1`, the affinity in assay [2] corresponds to a Ki of 14.8 nM. The Ratio pKi in assay [1] came to 1.56.
Compound `C=C(c1ccc(S(=O)(=O)c2ccc(OC)cc2)cc1)C1CCN(C2CCN(S(=O)(=O)C(C)C)CC2)CC1` gave a Ki in assay [2] of 31.7 nM. In addition, in assay [1], the Ratio pKi came to 2.3.
The like results for `C=C(c1ccc(S(=O)(=O)c2ccc(OC)cc2)cc1)C1CCN(C2CCN(C(=O)CC)CC2)CC1` were, in that order, 60.8 nM and 1.2.
Take `C=C(c1ccc(S(=O)(=O)c2ccc(OC)cc2)cc1)C1CCN(C2CCN(C(=O)OCC(C)C)CC2)CC1`: the Ki in assay [2] is 10.5 nM. Also, the Ratio pKi in assay [1] was 1.54.
The compound `C=C(c1ccc(S(=O)(=O)c2ccc(OC)cc2)cc1)C1CCN(C2CCN(S(=O)(=O)Cc3ccccc3)CC2)CC1` showed a Ki in assay [2] of 33.3 nM. For the same compound, in assay [1], the Ratio pKi was 1.36.
For `C=C(c1ccc(S(=O)(=O)c2ccc(OC)cc2)cc1)C1CCN(C2CCN(S(=O)(=O)CC)CC2)CC1`, affinity in assay [2] was put at a Ki of 74.5 nM. In assay [1], the Ratio pKi was found to be 2.21.
As to `C=C(c1ccc(S(=O)(=O)c2ccc(OC)cc2)cc1)C1CCN(C2CCN(C(=O)C3CC3)CC2)CC1`, the affinity in assay [2] corresponds to a Ki of 68.1 nM. In assay [1], the Ratio pKi was 2.42.
Regarding `C=C(c1ccc(S(=O)(=O)c2ccc(OC)cc2)cc1)C1CCN(C2CCNCC2)CC1`, the Ratio pKi in assay [1] was determined as 0.903.
On the same count and under the same terms, for `C=C(c1ccc(S(=O)(=O)c2ccc(OC)cc2)cc1)C1CCN(C2CCN(C(=O)CCC)CC2)CC1` the value was 2.04.
`C=C(c1ccc(S(=O)(=O)c2ccc(OC)cc2)cc1)C1CCN(C2CCN(C(=O)OC)CC2)CC1` gave a Ki in assay [2] of 60.4 nM. Moreover, the Ratio pKi in assay [1] was 1.78.
Compound `C=C(c1ccc(S(=O)(=O)c2ccc(OC)cc2)cc1)C1CCN(C2CCN(C(=O)OCCCC)CC2)CC1` showed an inhibitory constant (Ki) in assay [2] of 9.79 nM. Besides, the Ratio pKi in assay [1] is 1.45.
For `C=C(c1ccc(S(=O)(=O)c2ccc(OC)cc2)cc1)C1CCN(C2CCN(S(=O)(=O)c3ccccc3)CC2)CC1` the same measures were 37.4 nM and 2.02.
In assay [2], `C=C(c1ccc(S(=O)(=O)c2ccc(OC)cc2)cc1)C1CCN(C2CCN(C(=O)OCCC)CC2)CC1` gave a Ki of 40.7 nM. Also, the Ratio pKi in assay [1] amounted to 1.84.
Compound `C=C(c1ccc(S(=O)(=O)c2ccc(OC)cc2)cc1)C1CCN(C2CCN(C(=O)C(C)C)CC2)CC1` had a Ki in assay [2] of 117 nM. In addition, the Ratio pKi in assay [1] was 1.72.
The like results for `C=C(c1ccc(S(=O)(=O)c2ccc(OC)cc2)cc1)C1CCN(C2CCN(C(=O)Cc3ccccc3)CC2)CC1` were, in that order, 95.7 nM and 1.5.

(Values after ChEMBL document CHEMBL1147180, “Quantitative structure-selectivity relationship for M2 selectivity between M1 and M2 of piperidinyl piperidine derivatives as muscarinic antagonists” (Bioorg Med Chem Lett, 2007).)
